These results are taken from patent US8415351B2 (priority 2007, dated 2013).

For test [1], the system named is genotype 1a-H77 subgenomic replicon cell line. As to the kind of experiment: microbe, parasite or virus in culture. It is filed as cell-based, HCV. Conditions: Hepatitis C virus, read-out: EC50 1a.
In test [2] the test system is genotype 1b-Con1 subgenomic replicon cell line. Nature of the test: microbe, parasite or virus in culture. Format: cell-based, HCV. Conditions: Hepatitis C virus, read-out: EC50 1b.

A word on the EC50: it is the midpoint of the concentration-response curve. Take `COc1c(/C=C/c2ccc(NS(C)(=O)=O)cc2C(N)=O)cc(-n2ccc(=O)[nH]c2=O)cc1C(C)(C)C` [IB-L1-1.21, 2-{(E)-2-[3-tert-butyl-5-(2,4-dioxo-3,4-dihydro-2H-pyrimidin-1-yl)-2-methoxy-phenyl]-vinyl}-5-methanesulfonylamino-benzamide]: the half-maximal effective concentration (EC50) in test [1] is 10 to 100 nM; in test [2] it was below 10 nM.

Turning to `CC(C)(C)c1cc(-n2ccc(=O)[nH]c2=O)cc(/C=C/c2ccc(NS(C)(=O)=O)cc2)c1Cl` [IB-L1-1.12, N-(4-{(E)-2-[3-tert-Butyl-2-chloro-5-(2,4-dioxo-3,4-dihydro-2H-pyrimidin-1-yl)-phenyl]-vinyl}-phenyl)-methanesulfonamide], the EC50 in test [1] and in test [2] was 10 to 100 nM each time.

Regarding `COc1c(-c2ccc3nc(NS(C)(=O)=O)sc3c2)cc(-n2ccc(=O)[nH]c2=O)cc1C(C)(C)C` [IB-L0-2.28, N-(6-(3-tert-butyl-5-(2,4-dioxo-3,4-dihydropyrimidin-1(2H)-yl)-2-methoxyphenyl)benzo[d]thiazol-2-yl)methanesulfonamide], the half-maximal effective concentration (EC50) is above 1000 nM in test [1] and 100 to 1000 nM in test [2].

In the case of `COc1c(-c2ccc3nc(N)sc3c2)cc(-n2ccc(=O)[nH]c2=O)cc1C(C)(C)C` [IB-L0-2.27, 1-(3-(2-aminobenzo[d]thiazol-6-yl)-5-tert-butyl-4-methoxy-phenyl)pyrimidine-2,4(1H,3H)-dione], the EC50 lay within 100 to 1000 nM in test [1] and 10 to 100 nM in test [2].

For the molecule `COc1c(/C=C(/F)c2ccc(NS(C)(=O)=O)cc2)cc(N2CCC(=O)NC2=O)cc1C(C)(C)C` [IA-L1-1.5, (E)-N-(4-(2-(3-tert-butyl-5-(2,4-dioxotetrahydropyrimidin-1(2H)-yl)-2-methoxyphenyl)-1-fluorovinyl)phenyl)methanesulfonamide], the values for the EC50 in test [1] and in test [2] were 10 to 100 nM and below 10 nM, respectively.

For the molecule `COc1c(-c2ccc3nc(Cl)sc3c2)cc(-n2ccc(=O)[nH]c2=O)cc1C(C)(C)C` [IB-L0-2.38, 1-(3-tert-butyl-5-(2-chlorobenzo[d]thiazol-6-yl)-4-methoxyphenyl)pyrimidine-2,4(1H,3H)-dione], the EC50 in test [1] and in test [2] was above 1000 nM each time.

As for `COc1c(-c2nc3cc(NS(C)(=O)=O)ccc3[nH]2)cc(N2CCC(=O)NC2=O)cc1C(C)(C)C` [IA-L0-2.1, N-(2-(3-tert-butyl-5-(2,4-dioxotetrahydropyrimidin-1(2H)-yl)-2-methoxyphenyl)-1H-benzo[d]imidazol-5-yl)methanesulfonamide], the EC50 in test [1] and in test [2] was above 1000 nM in each case.

For the molecule `COc1c(/C=C/c2ccc(NS(C)(=O)=O)cc2-c2ncc[nH]2)cc(-n2ccc(=O)[nH]c2=O)cc1C(C)(C)C` [IB-L1-1.16, (E)-N-(4-(3-tert-butyl-5-(2,4-dioxo-3,4-dihydropyrimidin-1(2H)-yl)-2-methoxystyryl)-3-(1H-imidazol-2-yl)phenyl)methanesulfonamide], the EC50 in test [1] was in the range of 100 to 1000 nM; in test [2], 10 to 100 nM.

Consider `COc1c(-c2ccc3c(CNS(C)(=O)=O)noc3c2)cc(-n2ccc(=O)[nH]c2=O)cc1C(C)(C)C` [IB-L0-2.45, N-((6-(3-tert-butyl-5-(2,4-dioxo-3,4-dihydropyrimidin-1(2H)-yl)-2-methoxyphenyl)benzo[d]isoxazol-3-yl)methyl)methanesulfonamide], for which the figures for the EC50 in test [1] and in test [2] were above 1000 nM and 100 to 1000 nM, respectively.

With `COc1c(/C=C/c2ccc([N+](=O)[O-])cc2)cc(N2CCC(=O)NC2=O)cc1C(C)(C)C` [IA-L1-1.22, (E)-1-(3-tert-butyl-4-methoxy-5-(4-nitrostyryl)phenyl)dihydropyrimidine-2,4(1H,3H)-dione], the EC50 in test [1] is above 1000 nM; in test [2], 100 to 1000 nM.

For the molecule `COc1c(/C=C/c2ccc(NS(C)(=O)=O)cc2C(=O)N(C)C2CCS(=O)(=O)C2)cc(-n2ccc(=O)[nH]c2=O)cc1C(C)(C)C` (centres unmarked) [IB-L1-1.18, 2-{(E)-2-[3-tert-butyl-5-(2,4-dioxo-3,4-dihydro-2H-pyrimidin-1-yl)-2-methoxy-phenyl]-vinyl}-N-(1,1-dioxo-tetrahydro-1lambda*6*-thiophen-3-yl)-5-methanesulfonylamino-N-methyl-benzamide], the EC50 in test [1] and in test [2] was 10 to 100 nM throughout.

For the molecule `COc1c(/C=C/c2cc(F)c(NS(C)(=O)=O)cc2C)cc(-n2ccc(=O)[nH]c2=O)cc1C(C)(C)C` [IB-L1-1.15, (E)-N-(4-(3-tert-butyl-5-(2,4-dioxo-3,4-dihydropyrimidin-1 (2H)-yl)-2-methoxystyryl)-2-fluoro-5-methylphenyl)methanesulfonamide], the EC50 in test [1] and in test [2] was below 10 nM each time.

Take `COc1c(-c2ccc3cc(NS(C)(=O)=O)ccc3c2)cc(-n2ccc(=O)[nH]c2=O)cc1C(F)(F)F` [IB-L0-2.56, N-(6-(5-(2,4-dioxo-3,4-dihydropyrimidin-1(2H)-yl)-2-methoxy-3-(trifluoromethyl)phenyl)naphthalen-2-yl)methanesulfonamide]: the EC50 in test [1] was 100 to 1000 nM; in test [2] it was below 10 nM.

For `COc1c(Br)cc(-n2ccc(=O)[nH]c2=O)cc1-c1ccc2cc(NS(C)(=O)=O)ccc2c1` [IB-L0-2.69, N-(6-(3-bromo-5-(2,4-dioxo-3,4-dihydropyrimidin-1(2H)-yl)-2-methoxyphenyl)naphthalen-2-yl)methanesulfonamide], the EC50 lay in the range of 100 to 1000 nM in test [1] and 10 to 100 nM in test [2].

For `COc1c(I)cc(-n2ccc(=O)[nH]c2=O)cc1-c1ccc2cc(NS(C)(=O)=O)ccc2c1` [IB-L0-2.57, N-(6-(5-(2,4-dioxo-3,4-dihydropyrimidin-1(2H)-yl)-3-iodo-2-methoxyphenyl)naphthalen-2-yl)methanesulfonamide], the EC50 in test [1] lay within 100 to 1000 nM; in test [2], 10 to 100 nM.

For `COc1c(/C=C(\C)c2ccc(NS(C)(=O)=O)cc2)cc(N2CCC(=O)NC2=O)cc1C(C)(C)C` [IA-L1-1.6, (E)-N-(4-(1-(3-tert-butyl-5-(2,4-dioxotetrahydropyrimidin-1(2H)-yl)-2-methoxyphenyl)prop-1-en-2-yl)phenyl)methanesulfonamide], the EC50 in test [1] and in test [2] was 10 to 100 nM in each case.

In the case of `COc1c(C2CC2c2ccc(NS(C)(=O)=O)cc2)cc(N2CCC(=O)NC2=O)cc1C(C)(C)C` (centres unmarked) [IA-L8-1.1, N-(4-(2-(3-tert-butyl-5-(2,4-dioxotetrahydropyrimidin-1(2H)-yl)-2-methoxyphenyl)cyclopropyl)phenyl)methanesulfonamide], the EC50 in test [1] and in test [2] was 100 to 1000 nM throughout.

For `COc1c(-c2ccc3cc(NS(C)(=O)=O)ccc3c2)cc(-n2ccc(=O)[nH]c2=O)cc1-c1ccco1` [IB-L0-2.59, N-(6-(5-(2,4-dioxo-3,4-dihydropyrimidin-1(2H)-yl)-3-(furan-2-yl)-2-methoxyphenyl)naphthalen-2-yl)methanesulfonamide], the EC50 lay in the range of 100 to 1000 nM in test [1] and 10 to 100 nM in test [2].

Turning to `COc1ccc(/C=C/c2cc(N3CCC(=O)NC3=O)cc(C(C)(C)C)c2OC)cc1` [IA-L1-1.14, (E)-1-(3-tert-butyl-4-methoxy-5-(4-methoxystyryl)phenyl) dihydropyrimidine-2,4(1H,3H)-dione], the EC50 in test [1] and in test [2] was above 1000 nM each time.
